The text below walks through data of paper PMC3934894, “Inhibition of Human and Yeast 20S Proteasome by Analogues of Trypsin Inhibitor SFTI-1” (PLoS ONE, 2014).

In data set [1] the test system is HCT-116. Also noted: method as in PMID 10805568. The conditions noted are these: human cancer cells HCT-116; read-out: cytotoxic activity IC50, HCT-116; cited from earlier work.
Data set [2] relates to 20S proteasome, C-L activity. To be noted: cited from earlier work.
Data set [3] concerns 20S proteasome, T-L activity. To be noted: cited from earlier work.
Data set [4] deals with 20S proteasome, ChT-L activity. To be noted: cited from earlier work.
The subject of data set [5] is HL-60. The arrangement: method as in PMID 10805568. The conditions noted are these: human cancer cells HL-60; read-out: cytotoxic activity IC50, HL-60; cited from earlier work.
The test system of data set [6] is 20S proteasome. Also noted: method as in PMID 10805568. The conditions noted are these: ChT-L, T-L and C-L; cited from earlier work.
Data set [7] has as its target human 20S proteasome, caspase-like (C-L) activity (Homo sapiens, UniProt P28072). Description: C-L activity of SDS-activated human 20S proteasome (Z-LLE-AMC). To be noted: SDS-activated human 20S.
Method: (§1) An assay buffer was composed of 50 mM Tris-HCl (pH 8.1) and 0.02% (w/v) SDS (exceptionally, T-L activity was measured in Tris buffer without SDS, that may trigger precipitation of substrates containing the guanidino group [21]). […] The SFTI-1 analogues were incubated with 20S proteasome in assay buffer at 37°C for 30 min. Reactions were performed in 96-well black BRAND plates (Germany). The final volume of the solution in each well was 200 µL. […] Proteasomal subsite activities were determined by monitoring the AMC liberation over time with a Fluorostar Omega (BMG Labtech, Germany) using excitation and emission wavelengths of 380 nm and 450 nm, respectively. […] Association constants Ka were measured as described previously [14] and calculated using a two-parameter fit model (using the GraFit software package).
Data set [8] concerns porcine 20S C–L activity. The arrangement: method as in PMID 19054805. The conditions noted are these: cited from earlier work.
Data set [9] deals with human 20S proteasome, trypsin-like (T-L) activity (Homo sapiens, UniProt Q99436). Description: T-L activity of latent human 20S proteasome (Z-LLR-AMC, no SDS). To be noted: latent human 20S, around 40 µM.
Method: The peptidase activities of 20S proteasome were assayed using fluorogenic tri- and tetra-peptides coupled at their C-termini with 7-amino-4-methylcoumarin group (AMC). The initial concentration of purified yeast 20S proteasome [E0] […] An assay buffer was composed of 50 mM Tris-HCl (pH 8.1) and 0.02% (w/v) SDS (exceptionally, T-L activity was measured in Tris buffer without SDS, that may trigger precipitation of substrates containing the guanidino group [21]). […] The SFTI-1 analogues were incubated with 20S proteasome in assay buffer at 37°C for 30 min. Reactions were performed in 96-well black BRAND plates (Germany). The final volume of the solution in each well was 200 µL. […] Proteasomal subsite activities were determined by monitoring the AMC liberation over time with a Fluorostar Omega (BMG Labtech, Germany) using excitation and emission wavelengths of 380 nm and 450 nm, respectively.
Data set [10] has as its system rat and porcine 20S proteasomes, C-L site. Also noted: method as in PMID 19054805. The conditions noted are these: cited from earlier work.
Data set [11] has as its target human 20S proteasome, chymotrypsin-like (ChT-L) activity (Homo sapiens, UniProt P28074). To be noted: SDS-activated human 20S.
Method: as §1
Data set [12] deals with rat and porcine 20S proteasomes, ChT-L. The arrangement: method as in PMID 19054805. To be noted: cited from earlier work.
For data set [13], the system named is rat and porcine 20S proteasomes, T-L. The arrangement: method as in PMID 19054805. The conditions noted are these: cited from earlier work.
For data set [14], the system named is bovine α-chymotrypsin. Also noted: method as in PMID 15746161. The conditions noted are these: determined previously in the authors' laboratory; cited from earlier work.
Data set [15] deals with bovine β-trypsin. To be noted: cited from earlier work.
For data set [16], the system named is 20S proteasome. The arrangement: method as in PMID 19054805. To be noted: cited from earlier work.

Where only a bound is given, the exact number is not on record here.

With `C/C=C\NC(=O)[C@H]1NC(=O)[C@H](CC(N)=O)NC(=O)[C@@H](NC(=O)C(=O)[C@@H](C)CC)Cc2ccc(O)c(c2)-c2cccc3c2NC(=O)[C@@]3(O)[C@@H]1O` [TMC-95A], the IC50 (as a rule, the concentration that inhibits the measured activity by half) in [1] was 4400 nM; in [2] (read-out: IC50 C-L activity of 20S proteasome), 60 nM; in data set [3] (read-out: IC50 T-L activity of 20S proteasome) it was 200 nM; in data set [4] (read-out: IC50 ChT-L activity of 20S proteasome), 5.4 nM; in [5], 9800 nM. For the same compound, the Ki in data set [2] (read-out: Ki app (apparent Ki constant) C-L) was 29 nM; in data set [3] (read-out: Ki app (apparent Ki constant) T-L), 810 nM; in [4] (read-out: Ki app (apparent Ki constant) ChT-L) it was 1.1 nM.
With `C/C=C\NC(=O)[C@H]1NC(=O)[C@H](CC(N)=O)NC(=O)[C@@H](NC(=O)C(=O)[C@H](C)CC)Cc2ccc(O)c(c2)-c2cccc3c2NC(=O)[C@@]3(O)[C@H]1O` [TMC-95D], the “times weaker than TMC-95A” value in [6] is given as 20–150 times.
For “bovine pancreatic trypsin inhibitor [BPTI]”, the “effect on C-L activity at concentrations lower than 1 µM” value in data set [7] was “reduced the C-L activity significantly”. Further, the “maximal inhibition of C-L activity” value in data set [7] (even at 12 µM, data not shown) was at most 80%. In addition, the “inhibition of porcine 20S C–L activity at 2 µM” value in data set [8] is 86%. Further, the “reduction of T-L activity at around 40 µM” value in [9] worked out at 60%. For the same compound, the IC50 is 530 nM in [10], 420 nM in [12] and 790 nM in data set [13]. Also, the “inhibition of ChT-L activity at 4 µM” value in data set [11] (4 µM inhibitor) is on record as 60%. The “inhibition of the ChT-L site at ten-fold higher concentration” value in [11] (ten-fold higher than 4 µM, data not shown) came to 80%. In addition, the Ki in data set [12] (competitive, read-out: inhibition constant Ki, ChT-L) was 2000 nM.
For [Phe^5]SFTI-1, the “Ka with bovine α-chymotrypsin” value in data set [14] was 2e+09 M⁻¹.
With sunflower trypsin inhibitor SFTI-1, the IC50 in data set [7] (read-out: C-like Human 20S IC50, pH 8.1, 37°C, Z-LLE-AMC 79 µM) was found to be 58200 nM. In [15], the “association constant Ka with trypsin” value is 1.1e+10 M⁻¹. In addition, in [15] (read-out: inhibitory constant Ki, trypsin), the Ki was 0.5 nM. Besides, in data set [16], the “inhibition of 20S proteasome” value is on record as “does not cause any inhibition”.
